From US20060025419A1, “Imidazoquinoxaline compound for the treatment of melanoma” (priority 2004, published 2006) come the findings set out here.

For experiment [1], the system named is SK-Mel-5 cells. The experiment can be described thus: Growth of cultured melanoma cells, hemocytometer counting. The experiment is classed as cell-based, human. The protocol: FIGS. 1A-1E. […] After 72 h treatment, cells were photographed. […] 2×10^6 SK-Mel-5 melanoma cells were subcutaneously inoculated into nude mice (n=5 mice per group). […] Tumor size was measured using an electronic digital caliper at intervals of 4 days. Tumor volume was calculated and statistically analyzed. Data shown are representative of two independent experiments. […] BMS-345541 levels in serum (μM, left axis) and tumor tissues (nmoles per gram tumor protein, right axes) were determined at the indicated time points.
A super-repressor form of human IκBα (S32, 36A) resistant to degradation and mutant IKKβ (K44M) was kindly provided by Javier Piedrafita (Sidney Kimmel Cancer Center, University of California-San Diego School of Medicine). Antibodies to IKKα (H-744), IKKβ (H-470), Bcl-2, Bax and AIF were purchased from Santa Cruz Biotechnology, Inc. (Santa Cruz, Calif.). Dihydroethidine, 3,3′dihexyloxacarbocyanine iodide and pan-caspase inhibitor (Z-VAD-FMK) were purchased from Molecular Probes (Eugene, Oreg.). N-acetyl-L-cysteine (NAC) and Tiron were from Sigma-Aldrich (St. Louis, Mo.). Normal human epidermal melanocytes (NHEM) were provided by the Skin Disease Research Center in Vanderbilt University School of Medicine. NHEM were cultured in 154 medium with 1× human melanocyte growth supplement (Cascade Biologicals, Inc.). The melanoma cell lines, Sk Mel5, A375 and Hs294T, originally established from human metastatic melanoma, were purchased from American Type Culture Collection and cultured in DMEM: Ham's F-12 medium containing 10% FBS, 2 mM of L-glutamine, 100 μM of MEM Non-Essential Amino Acids (Life Technologies, Inc.), and 1 mM of sodium pyruvate (Sigma Chemical Co.).
Aberrant activation of NF-κB has been associated with carcinogenesis, and constitutively high IKK activity has been detected in many tumor types, including human melanoma (Yang & Richmond, 2001; Liptay et al., 2003; Mathas et al., 2003). IKK is a major regulator of the NF-κB pathway and therefore represents an attractive therapeutic target in advanced cancers. […] After three days of culture, the cell numbers were determined by hemocytometer counting (Table 1).

The test system of the next experiment is Hs 294T tumors. The experiment can be described thus: Melanoma tumor growth in nude mice. The following applies: 75 mg/kg orally once daily, 21 days, vs vehicle. The experiment is classed as in vivo.
The subject of a further experiment is NF-κB. The experiment can be described thus: NF-κB-dependent luciferase reporter assay. It is filed as cell-based, human. The following applies: 36 h. The method, then: (§1) FIGS. 2A-2D. […] SK-Mel-5 cells were plated in 6-well plates (1.5×10^5 cells per well) and then cotransfected with 1 μg of HIV long terminal repeat NF-κB-luciferase vector and β-galactosidase vector DNA using Lipofectamine Plus reagent. Twenty-four hours after transfection, cells in duplicate plates were treated with 0, 0.1, 1 and 10 μM of BMS-345541in DMSO and incubated for an additional 36 h. Cell extract was prepared and luciferase activity was detected. Luciferase activity was normalized to β-galactosidase activity. […] ATP. The [γ-^32P]-labeled IκBα protein was visualized by autoradiography. […] The supernatants from B were cleared by centrifugation, or (FIG. 2D) sera were collected from mice, and subjected to ELISA assay for CXCL1 according to the manufacture's protocol. Data shown are from a representative data set from two experiments performed in duplicate (total n=4 for each point). For ELISA; the mean value is representative of serum samples from five mice.

The target in the next experiment is T1, IKK (Homo sapiens, UniProt O14920+O15111).
T1 construct: Equal aliquots of cytoplasmic IKK proteins were immunoprecipitated with anti-IKKα/β antibodies; endogenous in cells; host or cells: SK-Mel-5 human melanoma cells, cytoplasmic extract, immunoprecipitated on Protein A/G agarose beads
T1 sequence (O14920 whole entry): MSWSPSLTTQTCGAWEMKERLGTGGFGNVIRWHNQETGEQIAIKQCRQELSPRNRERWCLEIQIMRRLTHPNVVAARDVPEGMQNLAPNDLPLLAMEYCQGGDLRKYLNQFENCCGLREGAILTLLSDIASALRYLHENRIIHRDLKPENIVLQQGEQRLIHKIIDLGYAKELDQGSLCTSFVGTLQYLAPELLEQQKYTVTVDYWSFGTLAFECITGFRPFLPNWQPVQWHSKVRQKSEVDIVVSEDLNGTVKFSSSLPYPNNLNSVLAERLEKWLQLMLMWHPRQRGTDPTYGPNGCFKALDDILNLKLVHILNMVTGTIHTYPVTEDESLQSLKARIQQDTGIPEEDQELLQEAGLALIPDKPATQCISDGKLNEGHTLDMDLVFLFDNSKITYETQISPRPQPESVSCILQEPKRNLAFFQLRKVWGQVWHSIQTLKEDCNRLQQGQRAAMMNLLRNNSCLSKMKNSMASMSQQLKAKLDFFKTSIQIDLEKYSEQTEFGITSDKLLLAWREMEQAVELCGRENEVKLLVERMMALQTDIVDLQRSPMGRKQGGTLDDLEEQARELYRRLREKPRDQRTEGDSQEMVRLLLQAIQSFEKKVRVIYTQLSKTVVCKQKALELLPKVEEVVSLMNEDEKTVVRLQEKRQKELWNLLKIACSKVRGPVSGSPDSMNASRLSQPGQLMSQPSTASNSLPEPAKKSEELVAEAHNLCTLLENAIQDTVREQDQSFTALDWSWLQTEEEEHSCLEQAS
T1 sequence (O15111 whole entry): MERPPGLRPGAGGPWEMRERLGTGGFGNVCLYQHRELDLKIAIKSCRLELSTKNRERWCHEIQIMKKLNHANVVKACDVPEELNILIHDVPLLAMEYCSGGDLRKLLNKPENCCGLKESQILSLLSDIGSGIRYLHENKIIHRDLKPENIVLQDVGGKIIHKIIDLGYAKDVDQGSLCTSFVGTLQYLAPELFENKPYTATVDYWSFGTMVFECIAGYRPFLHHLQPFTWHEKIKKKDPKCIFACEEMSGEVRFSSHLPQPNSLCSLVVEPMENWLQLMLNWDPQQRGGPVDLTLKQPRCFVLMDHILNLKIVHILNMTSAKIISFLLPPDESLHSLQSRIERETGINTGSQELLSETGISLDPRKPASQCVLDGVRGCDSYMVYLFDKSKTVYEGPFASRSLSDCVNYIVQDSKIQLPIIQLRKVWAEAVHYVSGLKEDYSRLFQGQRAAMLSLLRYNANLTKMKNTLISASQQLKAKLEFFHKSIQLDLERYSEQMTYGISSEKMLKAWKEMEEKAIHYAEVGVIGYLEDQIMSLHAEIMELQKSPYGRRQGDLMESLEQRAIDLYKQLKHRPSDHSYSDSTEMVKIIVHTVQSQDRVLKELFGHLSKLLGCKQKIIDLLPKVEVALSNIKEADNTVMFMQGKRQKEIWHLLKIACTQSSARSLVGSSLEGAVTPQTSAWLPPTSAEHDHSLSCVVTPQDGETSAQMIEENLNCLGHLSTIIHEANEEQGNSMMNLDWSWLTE
T1 sequence (Q9Y6K9 whole entry partner): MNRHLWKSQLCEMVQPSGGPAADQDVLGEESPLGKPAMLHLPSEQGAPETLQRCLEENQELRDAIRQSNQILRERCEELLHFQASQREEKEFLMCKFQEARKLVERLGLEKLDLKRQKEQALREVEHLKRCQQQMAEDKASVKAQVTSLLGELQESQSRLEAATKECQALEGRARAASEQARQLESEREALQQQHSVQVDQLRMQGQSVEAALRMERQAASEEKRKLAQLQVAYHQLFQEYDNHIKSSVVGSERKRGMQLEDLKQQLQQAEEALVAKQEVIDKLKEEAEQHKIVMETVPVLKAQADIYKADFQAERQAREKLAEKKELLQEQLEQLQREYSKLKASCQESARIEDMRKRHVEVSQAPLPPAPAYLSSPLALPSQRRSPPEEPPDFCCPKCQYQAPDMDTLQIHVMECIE
The experiment can be described thus: IKK immunoprecipitation and in vitro kinase assay from treated SK-Mel-5 cells. It is filed as cell-based. To be noted: overnight (14 h) treatment, autoradiography (FIG. 2B). The protocol: as §1

In experiment [2] the test system is SK-Mel-5 cells. The experiment can be described thus: Mitochondrial membrane potential (Δψm), DiOC6 and FACS. It is filed as cell-based, human. To be noted: SK-Mel-5, 10 μM. The method, then:
FIGS. 5A-5E. […] (FIG. 5A) Redistribution of Bcl-2 and Bax in mitochondria. […] Subcellular mitochondria and cytoplasm were prepared and subjected to Western blot analysis for Bcl-2 and Bax. (FIG. 5B) Dissipation of mitochondrial Δψm. […] After exposure, mitochondria were isolated and incubated with 80 μM 3,3′dihexyloxacarbocyanine iodide (DiOC6) at 37° C. for 15 min. Δψm was determined by FACS analysis using 484/530 nm filters within 10 min while gating the forward and sideward scatters on intact mitochondria (FIG. 5C). (FIG. 5D) Release of cytochrome-C and AIF. […] Subcellular extracts were prepared and subjected to Western blot analysis for cytochrome-C and AIF. […] The supernatant was assessed for cytochrome-c release. […]
For quantification of cell death, DNA content was analyzed on a FACScan (Becton Dickinson, San Jose, Calif.). […] Cell fluorescence was measured by flow cytometry with 488 nm excitation and 620 nm emission filters and data were analyzed using DNA content histogram deconvolution software (Multicycle, Phoenix Flow Systems). […] ROS were determined by FACS analysis with 488 nm excitation and 585 emission filters.
Mitochondria play a crucial role in the regulation of programmed cell death (Zamzami et al., 1995a; 1995b; 1996a; 1996b). […] The change in mitochondrial membrane potential (Δψm) was determined by FACS analysis after the mitochondria were stained with DiOC6.

For experiment [3], the system named is SK-Mel-5 cells. The experiment can be described thus: Western blot / confocal analysis of apoptotic proteins in subcellular fractions. The following applies: 10 μM. It is filed as cell-based, human.
Method: Subcellular mitochondria and cytoplasm were prepared and subjected to Western blot analysis for Bcl-2 and Bax. […] After exposure, mitochondria were isolated and incubated with 80 μM 3,3′dihexyloxacarbocyanine iodide (DiOC6) at 37° C. for 15 min. Δψm was determined by FACS analysis using 484/530 nm filters within 10 min while gating the forward and sideward scatters on intact mitochondria (FIG. 5C). […] Subcellular extracts were prepared and subjected to Western blot analysis for cytochrome-C and AIF. […] The supernatant was assessed for cytochrome-c release. 200 μM Ca^2+ was used as a positive control.
The cellular caspase-3 activity in samples was detected as described in Materials and Methods. […] Cells were fixed and stained with propidium iodide staining as described in FIG. 4H. The percentage of cell death was measured with flow cytometry. […] Cytosol was extracted and subjected to Western blot analysis for AIF, cytochrome-c (cyto-C) and actin. Actin was used as a loading control protein. […] Ref-1 was used as a nuclear marker protein. All data shown here were from three independent experiments. […] SK-Mel-5 cells were exposed to 10 μM BMS and/or pan-caspase inhibitor (Z-VAD-fmk, 50 μM).
Proteins from cell extracts were separated by 12% SDS-PAGE and electrophoretically transferred to nitrocellulose membranes. Nonspecific binding was blocked with 5% milk in TBST buffer (4 mM Tris base, 100 mM NaCl, pH 7.5, 0.05% Tween), incubated with the indicated primary antibodies with a dilution of 1:1000 at room temperature for 2 h or 4° C. for overnight and then with horseradish peroxidase-conjugated secondary antibody for 1 h. Blots were visualized by enhanced chemiluminescence assay.
The Mitochondria Isolation Kit (Pierce, Rockford, Ill.) was used for isolation of mitochondria from cultured melanoma cells according to the manufacture's instruction for the Reagent-based method. Briefly, cells (2×10^7) were collected, washed with PBS buffer and resuspended in 0.8 ml of Reagent A on ice for 2 min. 10 μl of Reagent B was added and samples were kept on ice, with vortexing very minute for 5 min. After addition of 0.8 ml of Reagent C, the mixture was centrifuged at 700×g for 10 min to remove the cell debris and nuclei. The supernatant was then centrifuged at 3,000×g for 15 min. The pellet (mitochondria) was washed with Reagent C. The purity of mitochondria was determined by Western blotting with β-actin, where β-actin negative preparation were fully to be pure. The supernatant (cytosolic fraction) was further cleared by centrifugation at 12,000×g for 15 min.
Cells were incubated with the anti-AIF polyclonal antibody for 2 h. Cells were washed twice and incubated with the secondary antibody conjugated with FITC for 1 h.

For the compound `Cc1ccc2nc(NCCN)c3ncc(C)n3c2c1.Cl` [BMS-345541, 4(2′-aminoethyl)amino-1,8-dimethylimidazo(1,2-a)quinoxaline], the cell morphology entry with SK-Mel-5 cells [1] (10 μM or 100 μM, 14 h (FIG. 1A)) was “appeared morphologically apoptotic”. Besides, the “cell number after three days of culture” value is listed as 3.7 ± 0.55 10^5 in the experiment on SK-Mel-5 cells [1] (Sk-Mel-5, 0.1 μM); 2.7 ± 0.31 10^5 with SK-Mel-5 cells [1] (Sk-Mel-5, 1.0 μM); 0.028 ± 0.02 10^5 in the experiment on SK-Mel-5 cells [1] (Sk-Mel-5, 10 μM); 0 10^5 in the experiment with SK-Mel-5 cells [1] (Sk-Mel-5, 100 μM). In the experiment on Hs 294T tumors, the “inhibition of tumor growth” value was 67±3.4%. For the same compound, the “reduction in NF-κB-dependent luciferase activity” value in the experiment with NF-κB (SK-Mel-5, 0.1 μM) is on record as 36%; in the experiment on NF-κB (SK-Mel-5, 1.0 μM), 75%; with NF-κB (SK-Mel-5, 10 μM) it was 95%. Also, the “IKK activity in SK-Mel-5 melanoma cells” value at IKK was “reduced by BMS-345541 in a concentration-dependent fashion”. The entries for the “loss of mitochondrial membrane potential” value in the experiment on SK-Mel-5 cells [2] (24 h) and in the experiment on SK-Mel-5 cells [2] (48 h) were 16±1.5% and 87±5.4%, respectively. In addition, the “time of cytochrome-c release into cytosol” value with SK-Mel-5 cells [3] worked out at 14 h. For the same compound, the “time of initiation of AIF release into cytosol” value in the experiment on SK-Mel-5 cells [3] stood at 4 h. Further, the “release of pro-apoptotic molecules from mitochondria” value with SK-Mel-5 cells [3] (24 h, Western blot) is “mitochondrial cytochrome-c release into the cytoplasm and AIF nuclear translocation”.
